Test results as given in patent US3939144A, “Manufacture of N-(benzenesulfonyl)-5-O-desosaminyl-erythromycilamine derivatives” (Pliva, Pharmaceutical and Chemical Works, priority 1974, dated 1976).
Values after ≈ are worked out from the molar mass of the structure shown.

Experiments:
Format in all cases: cell-based
Settings in all cases: compound alone
[1] = tested on: Strept.haem.; assay: Preliminary bacteriological tests, MIC, Strept.haem.
[2] = tested on: E.coli 8141; assay: Preliminary bacteriological tests, MIC, E.coli 8141
[3] = tested on: E.coli 7920; assay: Preliminary bacteriological tests, MIC, E.coli 7920

MIC [1] [µg/mL]	MIC [2] [µg/mL]	MIC [3] [µg/mL]	Structure (SMILES)
62.2 (≈ 78.2 µM)	500 (≈ 628 µM)	250 (≈ 314 µM)	CCC1OC(=O)C(C)C(O)C(C)C(OC2OC(C)CC(N(C)C)C2O)C(C)(O)CC(C)C(NS(=O)(=O)c2ccc(Br)cc2)C(C)C(O)C1(C)O (stereo not drawn) [DEASBr, N-(4-bromo-benzenesulfonyl)-5 -O-desosaminyl-erythromycilamine]
125 (≈ 166 µM)	250 (≈ 333 µM)	250 (≈ 333 µM)	CCC1OC(=O)C(C)C(O)C(C)C(OC2OC(C)CC(N(C)C)C2O)C(C)(O)CC(C)C(NS(=O)(=O)c2ccc(Cl)cc2)C(C)C(O)C1(C)O (stereo not drawn) [DEASCl, N-(4-chloro-benzenesulfonyl)-5 -O-desosaminyl-erythromycilamine]
62.2 (≈ 85 µM)	125 (≈ 171 µM)	125 (≈ 171 µM)	CCC1OC(=O)C(C)C(O)C(C)C(OC2OC(C)CC(N(C)C)C2O)C(C)(O)CC(C)C(NS(=O)(=O)c2ccc(N)cc2)C(C)C(O)C1(C)O (stereo not drawn) [DEASNH2, N-(4-amino-benzenesulfonyl)-5-0-desosaminyl-erythromycilamine]
62.2 (≈ 85.1 µM)	125 (≈ 171 µM)	125 (≈ 171 µM)	CCC1OC(=O)C(C)C(O)C(C)C(OC2OC(C)CC(N(C)C)C2O)C(C)(O)CC(C)C(NS(=O)(=O)c2ccc(C)cc2)C(C)C(O)C1(C)O (stereo not drawn) [DEAST, N-(4-methyl-benzenesulfonyl)-5 -O-desosaminyl-erythromycilamine]
